Results taken from the Kinase Knowledgebase extract (Sharma et al. 2016).

Molecular target: CDK2 (human) (UniProt P24941)
Assay: Enzyme Assay
Details: not given

| SMILES | Ki [nM] |
| --- | --- |
| CC(=O)/C=C/C(=O)N1CCC(Nc2nc(N)c(C(=O)c3c(F)cccc3F)s2)CC1 | 500 |
| Nc1nc(NC2CCN(S(=O)(=O)CCCn3cncn3)CC2)sc1C(=O)c1c(F)cccc1F | 4.4 |

Same assay, conditions: concentration not given here

| SMILES | inhibition [%] |
| --- | --- |
| Nc1nc(NC2CCN(C(=O)C(=O)c3c[nH]c4ccccc34)CC2)sc1C(=O)c1c(F)cccc1F | -31 |
| Nc1nc(NC2CCN(C(=O)[C@@H]3C[C@H]3c3ccccc3)CC2)sc1C(=O)c1c(F)cccc1F | -9 |
| C/C=C/CCC(=O)N1CCC(Nc2nc(N)c(C(=O)c3c(F)cccc3F)s2)CC1 | 71 |
| Nc1nc(NC2CCN(C(=O)c3ccsc3)CC2)sc1C(=O)c1c(F)cccc1F | 52 |
| COc1ccc(C(=O)N2CCC(Nc3nc(N)c(C(=O)c4c(F)cccc4F)s3)CC2)cc1F | 72 |
| Nc1nc(NC2CCN(C(=O)COc3ccc([N+](=O)[O-])cc3)CC2)sc1C(=O)c1c(F)cccc1F | 60 |
| CC(C)(O)CC(=O)N1CCC(Nc2nc(N)c(C(=O)c3c(F)cccc3F)s2)CC1 | 51 |
| Nc1nc(NC2CCN(C(=O)[C@@H](O)Cc3ccccc3)CC2)sc1C(=O)c1c(F)cccc1F | 61 |
| CC(O)CC(=O)N1CCC(Nc2nc(N)c(C(=O)c3c(F)cccc3F)s2)CC1 (stereo not given) | 38 |
| Nc1nc(NC2CCN(C(=O)Cc3cccc(F)c3F)CC2)sc1C(=O)c1c(F)cccc1F | 57 |
| Nc1nc(NC2CCN(C(=O)c3ccc(-c4ccccc4)cc3)CC2)sc1C(=O)c1c(F)cccc1F | -11 |
| CCC(O)C(=O)N1CCC(Nc2nc(N)c(C(=O)c3c(F)cccc3F)s2)CC1 (stereo not given) | 48 |
| COc1ccc(C(=O)N2CCC(Nc3nc(N)c(C(=O)c4c(F)cccc4F)s3)CC2)c(OC)c1 | -11 |
| CC(C)Oc1ccc(C(=O)N2CCC(Nc3nc(N)c(C(=O)c4c(F)cccc4F)s3)CC2)cc1 | 19 |
| Nc1nc(NC2CCN(C(=O)COc3cc(Cl)c(Cl)cc3Cl)CC2)sc1C(=O)c1c(F)cccc1F | -10 |
| Nc1nc(NC2CCN(C(=O)/C(F)=C/c3ccccc3)CC2)sc1C(=O)c1c(F)cccc1F | 64 |
| CCCOc1ccc(C(=O)N2CCC(Nc3nc(N)c(C(=O)c4c(F)cccc4F)s3)CC2)cc1 | 77 |
| Nc1nc(NC2CCN(C(=O)c3cnccn3)CC2)sc1C(=O)c1c(F)cccc1F | 58 |
| Nc1nc(NC2CCN(C(=O)c3ccc(C=O)o3)CC2)sc1C(=O)c1c(F)cccc1F | 39 |
| CN(C)C(=O)CCC(=O)N1CCC(Nc2nc(N)c(C(=O)c3c(F)cccc3F)s2)CC1 | 49 |
| Nc1nc(NC2CCN(C(=O)C3(O)CC3)CC2)sc1C(=O)c1c(F)cccc1F | 46 |
| COc1ccc(C(=O)N2CCC(Nc3nc(N)c(C(=O)c4c(F)cccc4F)s3)CC2)c(OC)n1 | 51 |

| SMILES | inhibition [%] |
| --- | --- |
| CCCCCCCC(CC)C(=O)N1CCC(Nc2nc(N)c(C(=O)c3c(F)cccc3F)s2)CC1 (stereo not given) | 25 |
| COC(=O)CC(=O)N1CCC(Nc2nc(N)c(C(=O)c3c(F)cccc3F)s2)CC1 | -24 |
| Nc1nc(NC2CCN(C(=O)CCN3CCCCC3)CC2)sc1C(=O)c1c(F)cccc1F | 15 |
| Nc1nc(NC2CCN(C(=O)CCc3c[nH]c4ccccc34)CC2)sc1C(=O)c1c(F)cccc1F | 56 |
| CC1(C)C2CC[C@@]1(CS(=O)(=O)N1CCC(Nc3nc(N)c(C(=O)c4c(F)cccc4F)s3)CC1)C(=O)C2 | -34 |
| Cc1cc(C)c(S(=O)(=O)N2CCC(Nc3nc(N)c(C(=O)c4c(F)cccc4F)s3)CC2)c(C)c1 | -14 |
| Nc1nc(NC2CCN(C(=O)/C=C/c3ccc(F)c(F)c3)CC2)sc1C(=O)c1c(F)cccc1F | 61 |
| Cc1ccccc1C(=O)N1CCC(Nc2nc(N)c(C(=O)c3c(F)cccc3F)s2)CC1 | -11 |
| Nc1nc(NC2CCN(C(=O)Cc3cccc4ccccc34)CC2)sc1C(=O)c1c(F)cccc1F | 51 |
| Cc1ccc(C)c(CCCC(=O)N2CCC(Nc3nc(N)c(C(=O)c4c(F)cccc4F)s3)CC2)c1 | 41 |
| Nc1nc(NC2CCN(C(=O)C3CCC(=O)CC3)CC2)sc1C(=O)c1c(F)cccc1F | 48 |
| CC1(C)OC(=O)CC1C(=O)N1CCC(Nc2nc(N)c(C(=O)c3c(F)cccc3F)s2)CC1 (stereo not given) | 79 |
| Cn1c(C(=O)N2CCC(Nc3nc(N)c(C(=O)c4c(F)cccc4F)s3)CC2)cc2ccccc21 | 61 |
| CCc1ccc2[nH]c(C(=O)N3CCC(Nc4nc(N)c(C(=O)c5c(F)cccc5F)s4)CC3)cc2c1 | 74 |
| Nc1nc(NC2CCN(C(=O)c3cnc4ccccc4c3)CC2)sc1C(=O)c1c(F)cccc1F | 27 |
| Nc1nc(NC2CCN(C(=O)c3ccccn3)CC2)sc1C(=O)c1c(F)cccc1F | 67 |
| CC(C)C(C(=O)N1CCC(Nc2nc(N)c(C(=O)c3c(F)cccc3F)s2)CC1)c1ccccc1 (stereo not given) | 29 |
| COc1ccc(CC(=O)N2CCC(Nc3nc(N)c(C(=O)c4c(F)cccc4F)s3)CC2)cc1OC | 55 |
| CCCCCC#CC(=O)N1CCC(Nc2nc(N)c(C(=O)c3c(F)cccc3F)s2)CC1 | 62 |
| Cc1ccc(CCC(=O)N2CCC(Nc3nc(N)c(C(=O)c4c(F)cccc4F)s3)CC2)cc1 | 36 |
| Cc1cccc(OCC(=O)N2CCC(Nc3nc(N)c(C(=O)c4c(F)cccc4F)s3)CC2)c1 | 70 |
| CC(C)=CC(=O)N1CCC(Nc2nc(N)c(C(=O)c3c(F)cccc3F)s2)CC1 | -19 |

| SMILES | inhibition [%] |
| --- | --- |
| CN1CC(C(=O)N2CCC(Nc3nc(N)c(C(=O)c4c(F)cccc4F)s3)CC2)CC1=O (stereo not given) | 41 |
| CSCCC(=O)N1CCC(Nc2nc(N)c(C(=O)c3c(F)cccc3F)s2)CC1 | 42 |
| Nc1nc(NC2CCN(C(=O)CCc3ccc4c(c3)OCO4)CC2)sc1C(=O)c1c(F)cccc1F | 49 |
| CC(C)c1ccc(CC(=O)N2CCC(Nc3nc(N)c(C(=O)c4c(F)cccc4F)s3)CC2)cc1 | 85 |
| Nc1nc(NC2CCN(C(=O)c3ccnc4ccccc34)CC2)sc1C(=O)c1c(F)cccc1F | 10 |
| Nc1nc(NC2CCN(C(=O)[C@H](O)C3CCCCC3)CC2)sc1C(=O)c1c(F)cccc1F | 25 |
| Nc1nc(NC2CCN(C(=O)c3c(F)cccc3F)CC2)sc1C(=O)c1c(F)cccc1F | -20 |
| Nc1nc(NC2CCN(C(=O)[C@H]3CCC(=O)O3)CC2)sc1C(=O)c1c(F)cccc1F | 76 |
| Nc1nc(NC2CCN(C(=O)c3cc4cc(F)ccc4[nH]3)CC2)sc1C(=O)c1c(F)cccc1F | 36 |
| CC1CCCC(C(=O)N2CCC(Nc3nc(N)c(C(=O)c4c(F)cccc4F)s3)CC2)C1 (stereo not given) | 74 |
| Nc1nc(NC2CCN(C(=O)c3cnnc4ccccc34)CC2)sc1C(=O)c1c(F)cccc1F | 28 |
| CO[C@@](C(=O)N1CCC(Nc2nc(N)c(C(=O)c3c(F)cccc3F)s2)CC1)(c1ccccc1)C(F)(F)F | -6 |
| CC(=O)/C=C/C(=O)N1CCC(Nc2nc(N)c(C(=O)c3c(F)cccc3F)s2)CC1 | 5 |
| Cc1cc(C(=O)N2CCC(Nc3nc(N)c(C(=O)c4c(F)cccc4F)s3)CC2)n(C(C)(C)C)n1 | 59 |
| Nc1nc(NC2CCN(C(=O)Oc3ccc(F)cc3)CC2)sc1C(=O)c1c(F)cccc1F | 47 |
| Nc1nc(NC2CCN(C(=O)Cc3ccccc3O)CC2)sc1C(=O)c1c(F)cccc1F | 48 |
| CCC[C@H]1CC[C@H](C(=O)N2CCC(Nc3nc(N)c(C(=O)c4c(F)cccc4F)s3)CC2)CC1 | 42 |
| Cc1ccnc(SCC(=O)N2CCC(Nc3nc(N)c(C(=O)c4c(F)cccc4F)s3)CC2)n1 | 86 |
| N#Cc1ccccc1C(=O)N1CCC(Nc2nc(N)c(C(=O)c3c(F)cccc3F)s2)CC1 | 61 |
| COc1cccc2cc(C(=O)N3CCC(Nc4nc(N)c(C(=O)c5c(F)cccc5F)s4)CC3)oc12 | 77 |
| CN(C)c1ccc(NC(=O)N2CCC(Nc3nc(N)c(C(=O)c4c(F)cccc4F)s3)CC2)cc1 | 23 |
| Nc1nc(NC2CCN(C(=O)c3csc([N+](=O)[O-])c3)CC2)sc1C(=O)c1c(F)cccc1F | 48 |

| SMILES | inhibition [%] |
| --- | --- |
| CC(Oc1ccc(O)cc1)C(=O)N1CCC(Nc2nc(N)c(C(=O)c3c(F)cccc3F)s2)CC1 (stereo not given) | 18 |
| CN(C)c1ccc(N=Nc2ccc(S(=O)(=O)N3CCC(Nc4nc(N)c(C(=O)c5c(F)cccc5F)s4)CC3)cc2)cc1 | -20 |
| Nc1nc(NC2CCN(C(=O)c3ccc(F)c4ccccc34)CC2)sc1C(=O)c1c(F)cccc1F | 30 |
| Nc1nc(NC2CCN(C(=O)CCC(F)(F)F)CC2)sc1C(=O)c1c(F)cccc1F | 45 |
| Nc1nc(NC2CCN(C(=O)c3ccc(C(F)(F)F)cc3C(F)(F)F)CC2)sc1C(=O)c1c(F)cccc1F | 0 |
| Nc1nc(NC2CCN(C(=O)Cc3cc(F)cc(F)c3F)CC2)sc1C(=O)c1c(F)cccc1F | 44 |
| CN(C)N=Nc1ccccc1C(=O)N1CCC(Nc2nc(N)c(C(=O)c3c(F)cccc3F)s2)CC1 | 43 |
| CCOc1cccc(/C=C/C(=O)N2CCC(Nc3nc(N)c(C(=O)c4c(F)cccc4F)s3)CC2)c1 | 50 |
| CSc1ncccc1C(=O)N1CCC(Nc2nc(N)c(C(=O)c3c(F)cccc3F)s2)CC1 | 33 |
| Nc1nc(NC2CCN(C(=O)C(O)c3cc(F)cc(F)c3)CC2)sc1C(=O)c1c(F)cccc1F (stereo not given) | 52 |
| Nc1nc(NC2CCN(C(=O)/C=C/c3cc(F)ccc3F)CC2)sc1C(=O)c1c(F)cccc1F | 81 |
| Nc1nc(NC2CCN(C(=O)c3ccc(-n4cccc4)nc3)CC2)sc1C(=O)c1c(F)cccc1F | 61 |
| Nc1nc(NC2CCN(C(=O)CCC(=O)c3ccc(F)cc3)CC2)sc1C(=O)c1c(F)cccc1F | 7 |
| COC1CCC(C(=O)N2CCC(Nc3nc(N)c(C(=O)c4c(F)cccc4F)s3)CC2)CC1 (stereo not given) | 54 |
| Nc1nc(NC2CCN(C(=O)Cc3cccs3)CC2)sc1C(=O)c1c(F)cccc1F | 73 |
| CN(C)c1ccc(/C=C/C(=O)N2CCC(Nc3nc(N)c(C(=O)c4c(F)cccc4F)s3)CC2)cc1 | 75 |
| Nc1nc(NC2CCN(C(=O)Cc3ccc4c(c3)OCO4)CC2)sc1C(=O)c1c(F)cccc1F | 39 |
| COC(=O)C(=O)N1CCC(Nc2nc(N)c(C(=O)c3c(F)cccc3F)s2)CC1 | -12 |
| CC1CCCCC1C(=O)N1CCC(Nc2nc(N)c(C(=O)c3c(F)cccc3F)s2)CC1 (stereo not given) | 43 |
| Nc1nc(NC2CCN(C(=O)C3CCCO3)CC2)sc1C(=O)c1c(F)cccc1F (stereo not given) | 27 |
| Nc1nc(NC2CCN(S(=O)(=O)c3ccc(Sc4ccncc4)cc3)CC2)sc1C(=O)c1c(F)cccc1F | -25 |
| Nc1nc(NC2CCN(S(=O)(=O)c3c(F)cccc3F)CC2)sc1C(=O)c1c(F)cccc1F | -8 |
